The text below walks through data of PMC10709007, “GPR162 is a beta cell CART receptor” (iScience, 2023).

Where no end group is shown, it is not given here.

One test concerns AtT20. Conditions: exogenous CART; cited from earlier work. An excerpt: (§1) GPR162 was identified as the most CART-affected orphan receptor in INS-1 832/13 cells. […] By showing that CART binds to GPR162 and that biological effects of CART are reduced or ablated after Gpr162 KD, we propose that GPR162 acts as a CART receptor in beta cells. We also established expression of GPR162 in a majority of human and mouse beta cells. Moderate GPR162 immunoreactivity was evident across the cytoplasm and more intense immunoreact ...

Test [1] has as its system INS-1 832/13 cells. Conditions: cited from earlier work.
Source text: as §1

A further test has as its system beta cells in islets. Conditions: between beta cells within same islet; cited from earlier work. The text has this:
Our observation that CART affects cytoskeletal rearrangement is novel. Without doubt, the actin network is of great importance for properly functioning insulin secretion.[34]^,[35]^,[36]^,[37] In the present study, a large number of genes involved in cytoskeletal rearrangement were affected by both Cartpt KD and Gpr162 KD. […] Furthermore, Cartpt KD also affects genes crucial for regulation of exocytosis,[14] a process indeed dependent on ...

The subject of test [2] is INS-1 832/13 cells. Put plainly: Glucose-stimulated insulin secretion (GSIS) in INS-1 832/13. Format: cell-based, rat. Conditions: 10^-7M CARTp55-102 24 h before GSIS, 16.7 mM glucose, 10 μM IBMX. The method, then:
GSIS was measured 72 h after Cartpt KD. INS-1 832/13 cells were washed twice and incubated for 2 h in 2.8 mM glucose HEPES-buffered saline solution (HBSS): 114 mM NaCl, 4.7 mM KCl, 1.2 mM KH2PO4, 1.16 mM MgSO4, 20 mM HEPES, 2.5 mM CaCl2, 25.5 mM NaHCO3, 0.2% BSA, pH 7.2, followed by 1-h stimulation in the same buffer containing 2.8 mM, 16.7 mM glucose, 16.7 mM glucose and 10 μM IBMX. In a separate experiment, control and Gpr162 KD cells were incubated with 10^−7M CARTp55-102 for 24 h before GSIS. Insulin concentrations in supernatant were determined using ELISA (Mercodia, Uppsala, Sweden) and were normalized to total protein content of each well (determined by Bio-Rad protein assay, BioRad).
Insulin from INS-1 832/13 cells and mouse islets were analyzed using ELISA (Mercodia).

The test system of the next test is GPR160. Description: Proximity ligation assay (PLA) CART-GPR160 in INS-1 832/13 cells. Format: binding, rat. The following applies: 10^-7M CARTp55-102, 15 minutes (Figure S3B), n = 8. The method, then: INS-1 832/13 cells were seeded in 8-well tissue culture chambers (Sarstedt, Nümbrecht, Germany). […] Cells were rinsed quickly in ice-cold 1XPBS and then washed twice with ice-cold PBS. Cells were then fixed for 20 min in 4% paraformaldehyde, washed 2 × 10 min in 1XPBS and permeabilized for 15 min in PBS +0.25% Triton X-100. Proximity ligation assay (PLA) (DuoLink In situ Red Starter Kit Goat/Rabbit, Sigma Aldrich) was performed according to the instructions provided by the manufacturers. The following antibody combinations were used for the PLA: goat anti-GPR162 (sc-138323, dilution 1:500, Santa Cruz) with rabbit anti-CART (code 2059A, dilution 1:5000, kindly provided by Dr. Jes T. Clausen, Novo Nordisk, Måløv, Denmark), and goat anti-CART (code sc-18068, dilution 1:400, Santa Cruz) with rabbit anti-GPR162 (code PA5-33655, dilution 1:500, Thermo Scientific). Anti-rabbit GPR160 (code PA5-33650) was combined with anti-goat CART (code sc-18068 from Santa Cruz). Anti-rabbit GNA13 (PA5-100644) was combined with anti-goat GPR162 (sc-138323). Negative controls were omission of both antibodies and the combination of the CART antibody with an antibody toward a receptor with a known ligand. […]

For the next test, the system named is rats. Conditions: cited from earlier work. An excerpt:
However, much earlier, a fragment of the CART peptide was identified in extracts of sheep hypothalamus.[2] CART was later found to be expressed also in pancreatic islet cells and in nerve fibers innervating the islets.[3]^,[4]^,[5] […] Since then, multiple biological effects of CART have been established.[4]^,[7] Among them is the effect of CART on islet hormone secretion fr ... || When studying neuropathic pain, Yosten et al.[11] found GPR160 to be necessary for CARTp-mediated cell activation in cell culture. […] Information on GPR160 is scarce, but it has been reported to be a potential marker for prostate cancer,[24] where it is involved in apoptosis and cell-cycle arrest.[25] […] Recently, the notion of GPR160 being the ... || (+ 1 further places)

Turning to “CARTp55-102: Rat, mouse CARTp55-102 (Phoenix Pharmaceuticals, Cat#003-62); human form Cat#003-60; cocaine- and amphetamine-regulated transcript peptide (IPIYEKKYGQVPMCDAGEQCAVRKGARIGKLCDCPRGTSCNSFLLKCL; ends and bridges not checked; cysteine pairing not given here)”, the “Activation of AtT20” value in the test with AtT20 is reported as “capable of activating AtT20”. Besides, the cAMP entry with INS-1 832/13 cells [1] was “increase cAMP”. Further, the “Synchronization of Ca2+ oscillations” value in the test with beta cells in islets is “increased synchronization of Ca^2+ oscillations”. Also, the “Insulinotropic effect of CARTp55-102 on glucose and IBMX-stimulated secretion in Gpr162 KD cells” value with INS-1 832/13 cells [2] (n = 6) was “abolished”; in the test with INS-1 832/13 cells [2] (n = 6, listed as CART) it was “near-complete abolishment”. Also, the “CART-GPR160 interaction (PLA)” value was “no” in the test with GPR160 and “failed to detect” with GPR160 (listed as CART). Further, the “Anorexigenic effects of CART on meal microstructure after Gpr160 knockdown” value in the test with rats (AAV-mediated knockdown of Gpr160 in dorsal vagal complex, rat) was “partially attenuates the anorexigenic effects of CART on meal microstructure”. In addition, the Anorexigenic effect result with rats is on record as “anorexigenic effects”.
